Earlier results, collected in patent publication US20200253951A1, “COMBINATION OF AN […] AGENT WITH […]/OR DO[…] FOR USE IN PREVENTING/STOPPING OF AXIAL MYOPIA IN HUMAN” (priority 2016, published 2020).

Legend:
[1] = test system: conjunctiva; settings: pediatric population, atropine 0,1%, 0,05% and 0,01%
[2] = test system: axial myopia; settings: one drop of 1% Atropine collirium at bedtime, chinese children, placebo controlled

Structure (SMILES): CN1[C@@H]2CC[C@H]1C[C@@H](OC(=O)C(CO)c1ccccc1)C2 (some centres unmarked) [Atropine]
- subjects who developed ocular redness and itching [1]: around 5%
- subjects in whom development of axial myopia was halted (stopping the elongation of the bulb) [2]: 90%
